This assay deals with T1, HIV protease (Human immunodeficiency virus type 1 group M subtype B, UniProt P04585).
T1 construct: and purified protease
Nature of the assay: HIV Protease Assay. Type of assay: biochemical. Particulars: pH 5.5, 10 μM inhibitor, 4% DMSO, 450 μM substrate, pH 5.5, 30 minutes at 37° C., RP-HPLC; read-out: HIV Protease % Inhibition at 10 μM. Here is the method:
An HIV protease standard assay was performed in a 60 μl reaction medium containing 50 mM sodium acetate, pH 5.5, 100 μg/ml bovine serum albumen,450 μM substrate (H2 N-Val-Ser-Gln-Asn-(β-naphthyl-alanine)-Pro-Val-Ile-OH), and purified protease. The reaction medium was incubated for 30 minutes at 37° C., quenched by the addition of 140 μl 5% H3 PO4, then analyzed by reverse phase HPLC using UV220 detection. In a typical control assay, 7% of the substrate was hydrolyzed. Aminediol inhibitors of the present invention, listed in the following Table 1, were then employed in the assay, for which purpose they were prepared as a […] solution in DMSO, then diluted to 30 μM with 50 mM sodium acetate/bovine serum albumen. This working stock was then diluted three-fold into the protease reaction medium, for a final concentration of 10 μM inhibitor and 4% DMSO.

`CC(C)(C)OC(=O)N[C@@H](Cc1ccccc1)[C@H](O)CNC[C@@H](O)[C@H](Cc1ccccc1)NC(=O)COc1cccc2ccccc12` [Compound 63, [1S-[1R*,2S*(2S*,3R*)]]-[2-Hydroxy-3-[[2-hydroxy-3-[[(1-naphthalenyloxy)-acetyl]amino]-4-phenylbutyl]amino]-1-(phenyl-methyl)propyl]carbamic acid, 1,1-dimethylethyl ester]: the inhibition (as a rule, the relative decrease from the control value, in per cent) at 10 µM came out at 53%. With `CC(C)(C)OC(=O)N[C@@H](Cc1ccccc1)[C@H](O)CNC[C@@H](O)[C@H](Cc1ccccc1)NC(=O)c1ccc2ccccc2n1` [Compound 65, [1S-[1R*,2S*(2S*,3R*)]]-[2-Hydroxy-3-[[2-hydroxy-4-phenyl-3-[(2-quinolinylcarbonyl)-amino]butyl]amino]-1-(phenylmethyl)propyl]carbamic acid, 1,1-dimethylethyl ester] the figure was 11%; with `CN(Cc1ccccc1)C(=O)N[C@@H](Cc1ccccc1)[C@H](O)CNC[C@@H](O)[C@H](Cc1ccccc1)NC(=O)OC(C)(C)C` [Compound 69, [1S-[1R*,2S*(2S*,3R*)]]-2-Hydrox3-[[2-hydroxy-3-[[[methyl(phenylmethyl)-amino]carbonyl]amino]-4-phenylbutyl]amino]-1-(phenylmethyl)propyl]carbamic acid, 1,1-dimethylethyl ester], 11%; with `O=C(Cc1ccccc1)N[C@@H](Cc1ccccc1)[C@H](O)CNC[C@@H](O)[C@H](Cc1ccccc1)NC(=O)Cc1ccccc1` [Compound 83, [R-(R*,S*)]-N,N'-[Iminobis[2-hydroxy-1-(phenylmethyl)-3,1-propanediyl[bisbenzeneacetamide], 19%. With `CC(C)(C)OC(=O)N[C@@H](Cc1ccccc1)[C@H](O)CNC[C@@H](O)[C@H](Cc1ccccc1)NC(=O)[C@H](CCCCN)NC(=O)OCc1ccccc1` [Compound 89, [S-[1R*,2S*(2S*,3R*)[[-N-[3-[[3-[[(1,1-Dimethylethoxy)carbonyl]amino]-2-hydroxy-4-phenylbutyl]amino]-2-hydroxy-1-(phenylmethyl)-propyl]-N2-[(phenylmethoxy)carbonyl]-L-lysinamide] the figure was 23%. Turning to `CC(C)(C)OC(=O)N[C@@H](Cc1ccccc1)[C@H](O)CNC[C@@H](O)[C@H](Cc1ccccc1)NC(=O)[C@@H](NC(=O)OCc1ccccc1)c1ccccc1` [Compound 94, [1S-[1R* [1R*,2S* (2S*,3R*)]]]-[2-[[3-[[3-[[(1,1-Dimethylethoxy)carbonyl]amino]-2-hydroxy-4-phenylbutyl]amino]-2-hydroxy-1-(phenylmethyl)propyl]amino]-2-oxo-1-phenylethyl]carbamic acid, phenylmethyl ester], the inhibition at 10 µM lay within 80 to 99%. Take `CC(C)(C)OC(=O)N[C@@H](Cc1ccccc1)[C@H](O)CNC[C@@H](O)[C@H](Cc1ccccc1)NC(=O)[C@@H]1CCCN1C(=O)OCc1ccccc1` [Compound 102, [S-[1R*,2S*(2S*,3R*)[]-N-[[[3-[[3-[[(1,1-Dimethylethoxy)carbonyl]amino]-2-hydroxy-4-phenylbutyl]amino]-2-hydroxy-1-(phenylmethyl)-propyl]-N^2-[phenylmethoxy)carbonyl]-L-prolinamide]: the inhibition at 10 µM was determined as 47%.

Turning to `CC(C)(C)OC(=O)N[C@@H](Cc1ccccc1)[C@H](O)CNC[C@@H](O)[C@H](Cc1ccccc1)NC(=O)C(OCc1ccccc1)C(C)(C)C` (stereo partly drawn) [Compound 106, [1S-[1R*,2S* (2S*,3R*)]]-3-[[3-[[3,3-Dimethyl-1-oxo-2-(phenylmethoxy)butyl)butyl]amino]-2-hydroxy-4-phenylbutyl]amino]-2-hydroxy-1-(phenyl-methyl)propyl]carbamic acid, 1,1-dimethylethyl ester], the inhibition at 10 µM was 71%.
